Experiments:
Test in all cases: Midazolam potentiation of EC10 GABA currents, whole-cell patch clamp, HEK293T
Assay type in all cases: cell-based
[1] = molecular target: T1, α2(S205I)β2γ2 GABAA receptor (Homo sapiens, UniProt P18507+P47869+P47870, S233I)
T1 construct: expressed in transfected cells; host or cells: HEK293T
Text: (§1) Human (Homo sapiens) GABAA subunits (α1‐6, β2, γ2s) were subcloned into pcDNA3.1+ vectors with a cytomegalovirus (CMV) promoter. The hβ2 and hα3 sequences were humanized rat (Rattus norvegicus) cDNA with amino acid substitutions made to match the human protein sequence. The α1‐3, α5, β2, and γ2s subunits were a generous gift from Neil L. Harrison (Columbia University Medical Center, NY). The α4 subunit was obtained from GenScript (Piscataway, NJ), and the α6 subunit was a generous gift from Robert L. McDonald (Vanderbilt University, TN). All point mutations (listed in Figure 1C) were introduced using the QuikChange Lightening site‐directed mutagenesis kit (Agilent Technologies, Santa Clara, CA) according to the manufacturer's instructions and were confirmed by sequencing (Eurofins MWG Operon, Louisville, KY).
(§2) Human embryonic kidney cells containing the SV40 T‐antigen (HEK293T) were acquired from American Type Culture Collection (ATCC®, Manassas, VA), catalogue number, CRL3216. HEK293T cells were maintained at 37°C and 5% CO2 in Eagle Minimum Essential Medium (MEM) supplemented with 5% fetal bovine serum (Atlanta Biologicals Inc., Flowery Branch, GA), 40 μM L‐glutamine, 100 U/mL penicillin and 0.1 mM streptomycin. Cells were passaged regularly when they reached 70% confluency using trypsin. Cells were not passaged more than 22 times. New cells were revived from frozen stocks at passage 2‐4. Cells used for in vitro electrophysiology experiments were grown on poly‐D‐lysine‐coated glass coverslips (No.2, VWR, Radnor, PA) and transfected with X‐tremeGENE (Roche Diagnostics, Indianapolis, IN) with the desired receptor subunit cDNAs at a 1:1:1 ratio to express αxβ2γ2s receptors (2 μg total cDNA) and with 0.5 μg green fluorescent protein (GFP) as an expression marker. The γ2s incorporation into receptors was tested with zinc inhibition assays regularly.24 Patch clamp experiments were performed on cells at 24‐72 hours post‐transfection. All experiments were performed at 22°C. Experiments consisted of at least five cells recorded per day from at least two transfections across 3‐4 days to control for cell health and transfection efficiency. At least three cells expressing wild‐type receptors were recorded on days that mutant receptors were tested to provide a time‐matched expression control. All reagents were purchased from Sigma‐Aldrich (St. Louis, MO) unless otherwise stated.
(§3) Extracellular solution contained 161 mM NaCl, 3 mM KCl, 1 mM MgCl2, 1.5 mM CaCl2, 10 mM HEPES, and 6 mM D‐glucose, adjusted to pH 7.4 with NaOH (320‐330 mOsm). […] The perfusion system was controlled by protocols written in pClamp 9 (Molecular Devices, LLC., Sunnyvale, CA). Whole‐cell currents were recorded at ‐60 mV, filtered at 100 Hz and sampled at 200 Hz with a MultiClamp 700B amplifier (Molecular Devices, LLC) and DigiData 1322A (Molecular Devices, LLC) digitizer. […] Cells were recorded with the midazolam protocol no more than two times to avoid desensitization and incomplete washout or irreversible modulation.
(§4) Recordings were analyzed using MATLAB (Math Works, Inc., Natick, MA). […] The maximum peak current, EC50 and Hill coefficient were estimated for assays from each cell. When Hill parameters are estimated from whole‐cell recordings, the changes in the parameters across receptor conditions can be ascribed to the following changes in receptor physiology. Changes in maximum current can be due to changes in the single‐channel conductance or the rate of desensitization. Changes in cell surface receptor expression can cause minor changes in maximum current, but are unlikely to occur in the time course of our experimental protocol. […] More often minor changes in the Hill coefficient are attributed to the altered homogeneity in the receptor population expressed by the HEK293T cell. For example, a shallower Hill coefficient could be caused by a shift in the population of receptors from mostly αβγ receptors to a combination of both αβ and αβγ receptors.

[2] = molecular target: T2, α2(H101R)β2γ2 GABAA receptor (Homo sapiens, UniProt P18507+P47869+P47870, H129R); details: for Midazolam potentiation (%): α2(H101R)
T2 construct: expressed in transfected cells; host or cells: HEK293T
T2 sequence (P47869 29-451 H129R): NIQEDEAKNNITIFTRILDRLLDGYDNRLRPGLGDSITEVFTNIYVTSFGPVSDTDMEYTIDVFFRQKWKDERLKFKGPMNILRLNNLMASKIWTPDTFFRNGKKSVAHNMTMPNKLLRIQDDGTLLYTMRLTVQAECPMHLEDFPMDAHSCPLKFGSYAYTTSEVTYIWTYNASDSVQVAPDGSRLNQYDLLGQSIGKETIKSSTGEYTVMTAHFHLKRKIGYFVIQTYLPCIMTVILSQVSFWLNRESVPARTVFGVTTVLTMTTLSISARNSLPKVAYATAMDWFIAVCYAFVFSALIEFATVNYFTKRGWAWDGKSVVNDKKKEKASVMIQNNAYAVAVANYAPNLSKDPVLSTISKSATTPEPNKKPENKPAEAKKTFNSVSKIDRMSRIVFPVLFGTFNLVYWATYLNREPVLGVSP
T2 sequence (P47870 25-512 limits assumed): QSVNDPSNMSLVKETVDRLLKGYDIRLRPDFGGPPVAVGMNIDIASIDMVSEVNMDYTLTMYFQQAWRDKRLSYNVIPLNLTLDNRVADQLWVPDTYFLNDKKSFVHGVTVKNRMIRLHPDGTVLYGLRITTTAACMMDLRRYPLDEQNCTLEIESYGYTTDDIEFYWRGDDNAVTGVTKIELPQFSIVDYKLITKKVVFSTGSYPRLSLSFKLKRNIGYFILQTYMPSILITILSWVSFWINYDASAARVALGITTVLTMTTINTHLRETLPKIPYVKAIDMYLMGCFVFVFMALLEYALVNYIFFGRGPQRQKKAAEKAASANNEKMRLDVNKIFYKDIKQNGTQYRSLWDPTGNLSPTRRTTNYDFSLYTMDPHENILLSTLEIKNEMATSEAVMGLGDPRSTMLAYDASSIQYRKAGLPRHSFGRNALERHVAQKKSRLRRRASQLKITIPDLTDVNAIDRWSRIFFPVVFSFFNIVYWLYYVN
T2 sequence (P18507 40-467 isoform P18507-1 limits assumed, stated change not applied): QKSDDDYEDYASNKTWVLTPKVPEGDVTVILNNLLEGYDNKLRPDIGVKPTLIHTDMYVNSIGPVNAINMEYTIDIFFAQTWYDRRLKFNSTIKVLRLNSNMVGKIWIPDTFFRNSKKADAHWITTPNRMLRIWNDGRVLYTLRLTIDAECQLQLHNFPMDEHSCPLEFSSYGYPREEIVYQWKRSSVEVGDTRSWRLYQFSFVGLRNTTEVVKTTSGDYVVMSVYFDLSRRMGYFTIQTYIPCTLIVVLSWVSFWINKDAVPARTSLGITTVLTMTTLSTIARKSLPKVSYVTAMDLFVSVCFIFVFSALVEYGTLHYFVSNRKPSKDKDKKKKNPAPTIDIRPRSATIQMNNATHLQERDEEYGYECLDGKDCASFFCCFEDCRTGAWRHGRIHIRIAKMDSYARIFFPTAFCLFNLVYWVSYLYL
Text: as §1, §2, §3, §4

[3] = molecular target: T3, α3β2γ2 GABAA receptor (Homo sapiens, UniProt P18507+P34903+P47870)
T3 construct: expressed in transfected cells; host or cells: HEK293T
T3 sequence (P34903 29-492): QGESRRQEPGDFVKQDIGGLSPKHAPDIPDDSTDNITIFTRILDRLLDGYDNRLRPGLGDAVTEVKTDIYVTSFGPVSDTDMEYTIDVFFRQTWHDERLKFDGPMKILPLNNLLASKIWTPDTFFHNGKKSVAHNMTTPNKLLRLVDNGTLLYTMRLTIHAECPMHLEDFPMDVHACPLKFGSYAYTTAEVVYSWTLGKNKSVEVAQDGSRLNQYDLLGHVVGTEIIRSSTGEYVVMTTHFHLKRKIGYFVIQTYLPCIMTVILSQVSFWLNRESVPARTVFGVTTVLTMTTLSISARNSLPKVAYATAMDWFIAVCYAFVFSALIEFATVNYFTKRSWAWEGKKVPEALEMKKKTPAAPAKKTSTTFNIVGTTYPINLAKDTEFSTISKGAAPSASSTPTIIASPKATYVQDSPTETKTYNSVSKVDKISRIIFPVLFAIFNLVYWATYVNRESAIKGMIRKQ
T3 sequence (P47870 25-512 limits assumed): as the sequence (P47870 25-512 limits assumed) above
T3 sequence (P18507 40-467 isoform P18507-1 limits assumed): as the sequence (P18507 40-467 isoform P18507-1 limits assumed, stated change not applied) above
Text: as §1, §2, §3, §4

[4] = molecular target: T4, α6β2γ2 GABAA receptor (Homo sapiens, UniProt P18507+P47870+Q16445); details: for Midazolam potentiation (%): α6β2γ2
T4 construct: expressed in transfected cells; host or cells: HEK293T
T4 sequence (Q16445 20-453): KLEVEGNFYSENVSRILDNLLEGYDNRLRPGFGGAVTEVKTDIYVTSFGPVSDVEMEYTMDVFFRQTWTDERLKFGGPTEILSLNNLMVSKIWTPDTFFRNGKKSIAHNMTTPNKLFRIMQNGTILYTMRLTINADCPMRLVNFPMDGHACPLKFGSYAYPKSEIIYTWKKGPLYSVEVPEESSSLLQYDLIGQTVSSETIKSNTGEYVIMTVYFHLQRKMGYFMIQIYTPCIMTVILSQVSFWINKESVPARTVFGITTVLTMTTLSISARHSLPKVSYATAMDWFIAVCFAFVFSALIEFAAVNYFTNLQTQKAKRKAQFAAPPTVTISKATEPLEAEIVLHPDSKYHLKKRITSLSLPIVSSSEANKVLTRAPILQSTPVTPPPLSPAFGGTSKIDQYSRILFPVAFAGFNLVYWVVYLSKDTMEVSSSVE
T4 sequence (P47870 26-474 isoform P47870-1 limits assumed): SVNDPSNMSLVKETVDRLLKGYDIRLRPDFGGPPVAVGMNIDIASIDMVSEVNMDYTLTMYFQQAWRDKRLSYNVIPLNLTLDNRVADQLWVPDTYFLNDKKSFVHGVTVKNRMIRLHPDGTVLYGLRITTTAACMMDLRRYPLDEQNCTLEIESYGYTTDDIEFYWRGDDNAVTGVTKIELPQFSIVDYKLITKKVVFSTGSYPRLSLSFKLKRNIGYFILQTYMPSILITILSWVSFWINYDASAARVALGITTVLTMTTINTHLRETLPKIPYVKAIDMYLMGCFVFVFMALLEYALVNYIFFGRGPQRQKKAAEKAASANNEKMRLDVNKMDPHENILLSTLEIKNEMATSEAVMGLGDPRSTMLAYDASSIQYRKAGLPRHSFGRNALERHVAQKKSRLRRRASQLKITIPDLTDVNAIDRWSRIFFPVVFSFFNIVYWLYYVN
T4 sequence (P18507 40-467 isoform P18507-1 limits assumed): as the sequence (P18507 40-467 isoform P18507-1 limits assumed, stated change not applied) above
Text: as §1, §2, §3, §4

[5] = molecular target: T5, α1β2γ2 GABAA receptor (Homo sapiens, UniProt P14867+P18507+P47870)
T5 construct: expressed in transfected cells; host or cells: HEK293T
T5 sequence (P14867 28-456): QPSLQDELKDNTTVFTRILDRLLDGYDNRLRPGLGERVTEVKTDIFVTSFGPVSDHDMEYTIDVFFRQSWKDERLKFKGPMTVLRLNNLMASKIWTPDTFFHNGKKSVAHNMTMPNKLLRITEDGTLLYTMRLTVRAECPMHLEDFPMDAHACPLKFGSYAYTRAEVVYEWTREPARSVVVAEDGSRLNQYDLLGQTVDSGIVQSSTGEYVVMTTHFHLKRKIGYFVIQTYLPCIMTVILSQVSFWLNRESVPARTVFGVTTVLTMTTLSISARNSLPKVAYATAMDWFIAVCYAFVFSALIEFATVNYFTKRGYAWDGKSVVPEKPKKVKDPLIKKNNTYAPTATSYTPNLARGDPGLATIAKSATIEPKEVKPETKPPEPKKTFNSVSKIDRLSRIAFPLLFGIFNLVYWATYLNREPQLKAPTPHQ
T5 sequence (P47870 26-474 isoform P47870-1 limits assumed): as the sequence (P47870 26-474 isoform P47870-1 limits assumed) above
T5 sequence (P18507 40-467 isoform P18507-1 limits assumed): as the sequence (P18507 40-467 isoform P18507-1 limits assumed, stated change not applied) above
Text: as §1, §2, §3, §4

[6] = molecular target: T6, α2β2γ2 GABAA receptor (Homo sapiens, UniProt P18507+P47869+P47870)
T6 construct: expressed in transfected cells; host or cells: HEK293T
T6 sequence (P47869 29-451): as the sequence (P47869 29-451 H129R) above, with R101H counted along it
T6 sequence (P47870 25-512 limits assumed): as the sequence (P47870 25-512 limits assumed) above
T6 sequence (P18507 40-467 isoform P18507-1 limits assumed): as the sequence (P18507 40-467 isoform P18507-1 limits assumed, stated change not applied) above
Text: as §1, §2, §3, §4

[7] = molecular target: T7, α4(R100H)β2γ2 GABAA receptor (Homo sapiens, UniProt P18507+P47870+P48169, R135H)
T7 construct: expressed in transfected cells; host or cells: HEK293T
T7 sequence (P48169 36-554 R135H): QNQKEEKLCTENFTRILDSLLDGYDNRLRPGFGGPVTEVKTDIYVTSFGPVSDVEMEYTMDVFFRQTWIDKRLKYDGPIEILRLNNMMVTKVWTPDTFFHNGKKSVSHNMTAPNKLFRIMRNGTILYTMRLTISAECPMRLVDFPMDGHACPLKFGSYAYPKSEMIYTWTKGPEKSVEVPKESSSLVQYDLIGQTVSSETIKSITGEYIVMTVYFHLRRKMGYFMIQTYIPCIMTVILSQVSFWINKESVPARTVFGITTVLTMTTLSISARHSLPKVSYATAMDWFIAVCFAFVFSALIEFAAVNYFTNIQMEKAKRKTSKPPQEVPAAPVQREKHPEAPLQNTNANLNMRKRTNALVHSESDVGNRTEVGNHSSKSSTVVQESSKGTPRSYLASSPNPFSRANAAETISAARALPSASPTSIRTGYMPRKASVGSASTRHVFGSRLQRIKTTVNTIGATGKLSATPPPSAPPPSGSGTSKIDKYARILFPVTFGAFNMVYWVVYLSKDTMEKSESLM
T7 sequence (P47870 26-474 isoform P47870-1 limits assumed, stated change not applied): as the sequence (P47870 26-474 isoform P47870-1 limits assumed) above
T7 sequence (P18507 40-467 isoform P18507-1 limits assumed, stated change not applied): as the sequence (P18507 40-467 isoform P18507-1 limits assumed, stated change not applied) above
Text: as §1, §2, §3, §4

T1 sequence (P47869 29-451 S233I): as the sequence (P47869 29-451 H129R) above, with R101H, S205I counted along it
T1 sequence (P47870 25-512 limits assumed, stated change not applied): as the sequence (P47870 25-512 limits assumed) above
T1 sequence (P18507 40-467 isoform P18507-1 limits assumed, stated change not applied): as the sequence (P18507 40-467 isoform P18507-1 limits assumed, stated change not applied) above

## Cc1ncc2n1-c1ccc(Cl)cc1C(c1ccccc1F)=NC2 [midazolam]
[1]
  EC50: 41.7 ± 4.99 nM
[1]; 10 nM MDZ + EC10 GABA, α2(S205I)
  Midazolam potentiation (%): 21.06 ± 6.24%
[1]; 50 nM MDZ + EC10 GABA, α2(S205I)
  Midazolam potentiation (%): 54.26 ± 10.25%
[1]; 100 nM MDZ + EC10 GABA, α2(S205I)
  Midazolam potentiation (%): 86.20 ± 14.74%
[1]; 500 nM MDZ + EC10 GABA, α2(S205I)
  Midazolam potentiation (%): 102.63 ± 19.49%
[1]; 1000 nM MDZ + EC10 GABA, α2(S205I)
  Midazolam potentiation (%): 97.62 ± 20.12%
[1]; α2(S205I), Hill fit, midazolam 10-1000 nM + EC10 GABA
  Max potentiation (%): 116.4 ± 23.0%
[1]; α2(S205I), midazolam Hill fit
  Hill coefficient: 1.362 ± 0.140
[2]; 10 nM MDZ + EC10 GABA
  Midazolam potentiation (%): 9.85 ± 5.77%
[2]; 50 nM MDZ + EC10 GABA
  Midazolam potentiation (%): 21.72 ± 8.75%
[2]; 100 nM MDZ + EC10 GABA
  Midazolam potentiation (%): 25.17 ± 9.58%
[2]; 500 nM MDZ + EC10 GABA
  Midazolam potentiation (%): 30.08 ± 10.31%
[2]; 1000 nM MDZ + EC10 GABA
  Midazolam potentiation (%): 31.81 ± 11.79%
[2]; printed α2(H102R)
  responsiveness to midazolam potentiation: abolished the ability of receptors to respond to midazolam potentiation
[3]; 10 nM MDZ + EC10 GABA
  Midazolam potentiation (%): 37.98 ± 5.40%
[3]; 50 nM MDZ + EC10 GABA
  Midazolam potentiation (%): 132.92 ± 12.09%
[3]; 100 nM MDZ + EC10 GABA
  Midazolam potentiation (%): 221.10 ± 19.12%
[3]; 500 nM MDZ + EC10 GABA
  Midazolam potentiation (%): 279.18 ± 24.71%
[3]; 1000 nM MDZ + EC10 GABA
  Midazolam potentiation (%): 281.17 ± 24.73%
[3]; EC50 (nM), midazolam potentiation of EC10 GABA
  EC50: 46.4 nM
[3]; Hill fit, midazolam 10-1000 nM + EC10 GABA
  Max potentiation (%): 267.8 ± 20.3%
[3]; midazolam Hill fit
  Hill coefficient: 1.503 ± 0.117
[4]; 10 nM MDZ + EC10 GABA
  Midazolam potentiation (%): 14.66 ± 3.92%
[4]; 50 nM MDZ + EC10 GABA
  Midazolam potentiation (%): 14.55 ± 3.86%
[4]; 100 nM MDZ + EC10 GABA
  Midazolam potentiation (%): 14.58 ± 4.87%
[4]; 500 nM MDZ + EC10 GABA
  Midazolam potentiation (%): 11.15 ± 6.25%
[4]; 1000 nM MDZ + EC10 GABA
  Midazolam potentiation (%): 23.34 ± 4.23%
[4]; wildtype α6β2γ2
  responsiveness to midazolam potentiation: no notable midazolam potentiation
[5]
  EC50: 71.4 ± 5.8 nM
[5]; 10 nM MDZ + EC10 GABA, α1β2γ2
  Midazolam potentiation (%): 22.06 ± 3.46%
[5]; 50 nM MDZ + EC10 GABA, α1β2γ2
  Midazolam potentiation (%): 71.67 ± 6.40%
[5]; 100 nM MDZ + EC10 GABA, α1β2γ2
  Midazolam potentiation (%): 145.94 ± 13.37%
[5]; 500 nM MDZ + EC10 GABA, α1β2γ2
  Midazolam potentiation (%): 201.94 ± 16.80%
[5]; 1000 nM MDZ + EC10 GABA, α1β2γ2
  Midazolam potentiation (%): 215.35 ± 26.71%
[5]; α1β2γ2, Hill fit, midazolam 10-1000 nM + EC10 GABA
  Max potentiation (%): 203.0 ± 17.6%
[5]; α1β2γ2, midazolam Hill fit
  Hill coefficient: 1.765 ± 0.165
[6]
  EC50: 50.9 ± 5.05 nM
[6]; 10 nM MDZ + EC10 GABA, α2β2γ2
  Midazolam potentiation (%): 19.47 ± 4.19%
[6]; 50 nM MDZ + EC10 GABA, α2β2γ2
  Midazolam potentiation (%): 69.08 ± 17.73%
[6]; 100 nM MDZ + EC10 GABA, α2β2γ2
  Midazolam potentiation (%): 128.98 ± 36.14%
[6]; 500 nM MDZ + EC10 GABA, α2β2γ2
  Midazolam potentiation (%): 167.38 ± 49.89%
[6]; 1000 nM MDZ + EC10 GABA, α2β2γ2
  Midazolam potentiation (%): 165.35 ± 48.98%
[6]; α2β2γ2, Hill fit, midazolam 10-1000 nM + EC10 GABA
  Max potentiation (%): 169.6 ± 49.9%
[6]; α2β2γ2, midazolam Hill fit
  Hill coefficient: 1.743 ± 0.133
[7]
  EC50: 74 ± 3.44 nM
[7]; 10 nM MDZ + EC10 GABA, α4(R100H)
  Midazolam potentiation (%): 26.12 ± 4.95%
[7]; 50 nM MDZ + EC10 GABA, α4(R100H)
  Midazolam potentiation (%): 54.65 ± 8.66%
[7]; 100 nM MDZ + EC10 GABA, α4(R100H)
  Midazolam potentiation (%): 87.48 ± 13.68%
[7]; 500 nM MDZ + EC10 GABA, α4(R100H)
  Midazolam potentiation (%): 117.13%
[7]; 1000 nM MDZ + EC10 GABA, α4(R100H)
  Midazolam potentiation (%): 125.77%
[7]; α4(R100H), Hill fit, midazolam 10-1000 nM + EC10 GABA
  Max potentiation (%): 113.8 ± 21.6%
[7]; α4(R100H), midazolam Hill fit
  Hill coefficient: 1.187 ± 0.150
